Where a chain is given by its changes, count along the chain named.

The target in one experiment is T1, WT DP1 (Homo sapiens, UniProt Q13258).
T1 sequence (Q13258 1-359): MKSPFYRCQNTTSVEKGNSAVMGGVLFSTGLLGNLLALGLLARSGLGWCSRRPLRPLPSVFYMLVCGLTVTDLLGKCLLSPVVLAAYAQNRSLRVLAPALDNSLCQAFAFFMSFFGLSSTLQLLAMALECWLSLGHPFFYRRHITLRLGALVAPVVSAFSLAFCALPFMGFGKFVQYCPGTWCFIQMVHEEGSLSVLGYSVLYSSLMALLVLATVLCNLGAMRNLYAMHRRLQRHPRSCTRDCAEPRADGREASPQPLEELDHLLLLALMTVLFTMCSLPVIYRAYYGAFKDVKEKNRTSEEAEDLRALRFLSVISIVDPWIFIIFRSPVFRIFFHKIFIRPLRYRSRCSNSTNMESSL
Description: Cyclic AMP GloSensor assay.

The target in a further experiment is T2, DP1 R327^8.47A (Homo sapiens, UniProt Q13258, R327A).
T2 sequence (Q13258 1-359 R327A): T1 sequence (Q13258 1-359) with R327A
The experiment can be described thus: ONE-GO BRET Gs protein activation assay. Format: cell-based. (BRET reads energy transfer from a luciferase to a nearby fluorophore.)

By EC50 is commonly meant the midpoint of the concentration-response curve. With `Cc1cc(OC[C@@H]2CN(C)c3ccccc3O2)cc(C)c1C(=O)Nc1ccc(Cl)c(CC(=O)O)c1` [ONO2550289, (S)-2-(2-chloro-5-(2,6-dimethyl-4-((4-methyl-3,4-dihydro-2H-benzo[b][1,4]oxazin-2-yl)methoxy)benzamido)phenyl)acetic acid], on WT DP1, the half-maximal effective concentration (EC50) stood at 1.1 nM and the “Effect on basal activity of DP1 in cAMP accumulation assays” value is recorded as “fully inhibit the basal activity”.

Turning to `Cc1cc(OC[C@@H]2CN(C)c3ccccc3O2)cc(C)c1C(=O)Nc1ccc(Cl)c(C2(C(=O)O)CC2)c1` [ONO3030297, (S)-1-(2-chloro-5-(2,6-dimethyl-4-((4-methyl-3,4-dihydro-2H-benzo[b][1,4]oxazin-2-yl)methoxy)benzamido)phenyl)cyclopropane-1-carboxylic acid], at WT DP1, the EC50 turned out to be 1.3 nM and the “Effect on basal activity of DP1 in cAMP accumulation assays” value is listed as “fully inhibit the basal activity”.

Take `CCCCC[C@H](O)/C=C/[C@H]1C(=O)C[C@H](O)[C@@H]1C/C=C\CCCC(=O)O` [PGD2, Prostaglandin D2]: the “Reduction of the potency of PGD2 by the R327^8.47A mutation” value on DP1 R327^8.47A is “over 70 fold”. This molecule came in with a concentration for a half-maximal effect (EC50) at WT DP1 of 6.2 nM.

(Values after publication PMC12508460 (Nature Communications, 2025).)
